Earlier results in publication PMC12901815 (Environmental Analysis, Health and Toxicology, 2025).

Settings: male Alderley Park rats, oral administration; cited from earlier work

With polyaminopropylbiguanide [PHMB] as the substance, how does the “tissue distribution of radioactivity” value read?
The value was “the highest radioactivity occurred in adipose tissue, followed by kidneys and liver, without detectable brain accumulation”.
